# Experimental data taken from patent US12274775B2, “Fatty acid esters as anti-Malassezia agents” (SYMRISE AG, priority 2019, dated 2025).
# Like-named read-outs stand apart in the source and are kept apart here.
# How the values were obtained:
# Assay in all cases: Agar dilution test on mDixon agar, minimal inhibitory concentration (MIC)
# Type in all cases: cell-based
# [1] = test system: M. globosa; details: for MIC: Malassezia globosa
# Protocol: (§1) The fatty acid esters and their mixtures were tested for growth inhibition against Malassezia. The following reference strains were included:
# (§2) Tests were performed on solid media using agar dilution tests. Stock solutions of test substances were prepared in mDixon-Agar (cf. Table 2). Lower test concentrations were obtained by diluting stock solutions with fresh agar.
# (§3) Preparation of liquid agar was carried out in temperated water bath. Required amounts of test substances were weighed in 130 ml of Dixon Agar and mixed with fresh Dixon-Agar to reach desired concentrations of test substances. Agar solutions with test substances were then poured into 24 well-plates. The pH value in all assays was maintained at 5.5. Preparation of test substances was done on weight per volume base. All results are expressed in parts per million (1 ppm=0.0001%).
# (§4) Briefly, Malassezia strains were cultivated on selective agar for pathogenic fungi (Merck) and overlaid with a thin layer of cold-sterilized olive oil. […] Incubation was carried out at 32° C. over a maximal duration of 14 days with regular inspection and documentation of growth status. Minimal inhibitory concentrations (MICs) were determined as the lowest concentrations of test compound without visible growth. Each experiment was repeated to confirm results.
# [2] = test system: M. restricta; details: for MIC: 336 h
# Protocol: as §1, §2, §3, §4
# [3] = test system: M. sympodialis; details: for MIC: 336 h
# Protocol: as §1, §2, §3, §4
# [4] = test system: M. furfur; details: for MIC: Malassezia furfur
# Protocol: as §1, §2, §3, §4
# [5] = test system: M. pachydermatis; details: for MIC: Malassezia pachydermatis
# Protocol: as §1, §2, §3, §4
# [6] = M. globosa CBS 7966, agar dilution, pH 5.5, 32° C., up to 14 days
# [7] = M. globosa PM1, agar dilution, pH 5.5, 32° C., up to 14 days
# [8] = M. restricta CBS 7877, agar dilution, pH 5.5, 32° C., up to 14 days
# [9] = M. sympodialis ATCC 42132, pH 5.5, 32° C., up to 14 days
# [10] = M. sympodialis CBS 7222, pH 5.5, 32° C., up to 14 days
# [11] = M. sympodialis CBS 7979, pH 5.5, 32° C., up to 14 days
# [12] = M. sympodialis DSM 6171, pH 5.5, 32° C., up to 14 days
# [13] = 336 h, M. globosa PM1, agar dilution, pH 5.5, 32° C., up to 14 days, read-out: Minimal inhibitory concentration (MIC)
# [14] = CBS7705, 336 h, M. globosa CBS 7705, agar dilution, pH 5.5, 32° C., up to 14 days, read-out: Minimal inhibitory concentration (MIC)
# [15] = CBS7966, 336 h, M. globosa CBS 7966, agar dilution, pH 5.5, 32° C., up to 14 days, read-out: Minimal inhibitory concentration (MIC)
# [16] = M. restricta CBS 7877, agar dilution, pH 5.5, 32° C., up to 14 days, read-out: Minimal inhibitory concentration (MIC)
# [17] = pH 5.5, M. sympodialis ATCC 42132, pH 5.5, 32° C., up to 14 days, read-out: Minimal inhibitory concentration (MIC)
# [18] = pH 5.5, M. sympodialis CBS 7222, pH 5.5, 32° C., up to 14 days, read-out: Minimal inhibitory concentration (MIC)
# [19] = pH 5.5, M. sympodialis CBS 7979, pH 5.5, 32° C., up to 14 days, read-out: Minimal inhibitory concentration (MIC)
# [20] = pH 5.5, M. sympodialis DSM 6171, pH 5.5, 32° C., up to 14 days, read-out: Minimal inhibitory concentration (MIC)
# [21] = M. furfur CBS 1878, agar dilution, pH 5.5, 32° C., up to 14 days
# [22] = M. furfur CBS 7019, agar dilution, pH 5.5, 32° C., up to 14 days
# [23] = CBS1878, 336 h, M. furfur CBS 1878, agar dilution, pH 5.5, 32° C., up to 14 days, read-out: Minimal inhibitory concentration (MIC)
# [24] = CBS7019, 336 h, M. furfur CBS 7019, agar dilution, pH 5.5, 32° C., up to 14 days, read-out: Minimal inhibitory concentration (MIC)
# [25] = 336 h, M. pachydermatis 1892, agar dilution, pH 5.5, 32° C., up to 14 days, read-out: Minimal inhibitory concentration (MIC)
# [26] = CBS1879, 336 h, M. pachydermatis CBS 1879, agar dilution, pH 5.5, 32° C., up to 14 days, read-out: Minimal inhibitory concentration (MIC)
# [27] = 336 h, pH 5.5, read-out: Minimal inhibitory concentration (MIC)
Molecule,"Minimal inhibitory concentration (MIC) [1, 6]","Minimal inhibitory concentration (MIC) [1, 7]","Minimal inhibitory concentration (MIC) [3, 9]","Minimal inhibitory concentration (MIC) [3, 10]","Minimal inhibitory concentration (MIC) [3, 11]","Minimal inhibitory concentration (MIC) [3, 12]","MIC [1, 13]","MIC [1, 14]","MIC [1, 15]","MIC [2, 16]","MIC [3, 17]","MIC [3, 18]","MIC [3, 19]","MIC [3, 20]","Minimal inhibitory concentration (MIC) [4, 21]","Minimal inhibitory concentration (MIC) [4, 22]",also measured
"OCCCO [1,3-Propandiol]",40000 ppm,33000 ppm,40000 ppm,33000 ppm,80000 ppm,80000 ppm,,,,,,,,,,,"Minimal inhibitory concentration (MIC) ([1]; M. globosa CBS 7705, agar dilution, pH 5.5, 32° C., up to 14 days): 80000 ppm; Minimal inhibitory concentration (MIC) [2, 8]: 33000 ppm"
"CCCCC(O)CO (centres unmarked) [1,2-Hexandiol]",,,,,,,5000 µg/mL,10000 µg/mL,5000 µg/mL,5000 µg/mL,10000 µg/mL,10000 µg/mL,10000 µg/mL,10000 µg/mL,,,
CCCCCCCC(=O)OCC(CO)OC(=O)CCCCCCC (centres unmarked) [3-Hydroxypropyl dicaprylate],8000 ppm,8000 ppm,4000 ppm,20000 ppm,20000 ppm,20000 ppm,,,,,,,,,>20000 ppm,20000 ppm,
CCCCCCCC(=O)OCC(O)CO (centres unmarked) [Glyceryl monocaprylate],,,,,,,500 to 1000 µg/mL,1000 µg/mL,1000 µg/mL,330 µg/mL,1000 µg/mL,1000 µg/mL,1000 µg/mL,2000 µg/mL,,,"MIC [4, 23]: 4000 µg/mL; MIC [4, 24]: 4000 µg/mL; MIC [5, 25]: 500 µg/mL; MIC [5, 26]: 330 µg/mL"
"C=CCCCCCCCCC(=O)O [Undecylenic acid, 10-undecylenic acid]",,,,,,,,,,,,,,,,,"MIC ([4]; CBS1878, 336 h, pH 5.5, read-out: Minimal inhibitory concentration (MIC)): 2000 µg/mL; MIC ([4]; CBS7019, 336 h, pH 5.5, read-out: Minimal inhibitory concentration (MIC)): > 2000 µg/mL; MIC [1, 27]: 677 µg/mL; MIC ([1]; CBS7705, 336 h, pH 5.5, read-out: Minimal inhibitory concentration (MIC)): 330 µg/mL; MIC ([1]; CBS7966, 336 h, pH 5.5, read-out: Minimal inhibitory concentration (MIC)): 2000 µg/mL; MIC [5, 27]: 500 µg/mL; MIC ([5]; CBS1879, 336 h, pH 5.5, read-out: Minimal inhibitory concentration (MIC)): 1000 µg/mL; MIC ([2]; pH 5.5, read-out: Minimal inhibitory concentration (MIC)): 500 µg/mL; MIC ([3]; pH 5.5, read-out: Minimal inhibitory concentration (MIC), M. sympodialis ATCC 42132, pH 5.5, 32° C., up to 14 days): 100 µg/mL; MIC ([3]; pH 5.5, read-out: Minimal inhibitory concentration (MIC), M. sympodialis CBS 7222, pH 5.5, 32° C., up to 14 days): 100 µg/mL; MIC ([3]; pH 5.5, read-out: Minimal inhibitory concentration (MIC), M. sympodialis CBS 7979, pH 5.5, 32° C., up to 14 days): 200 µg/mL; MIC ([3]; pH 5.5, read-out: Minimal inhibitory concentration (MIC), M. sympodialis DSM 6171, pH 5.5, 32° C., up to 14 days): 100 µg/mL"
C=CCCCCCCCCC(=O)OCC [Ethyl undecylenoate],,,,,,,8000 µg/mL,4000 µg/mL,10000 µg/mL,1000 µg/mL,200 µg/mL,200 µg/mL,200 µg/mL,200 µg/mL,,,"MIC [4, 23]: 20000 µg/mL; MIC [4, 24]: > 20000 µg/mL; MIC [5, 25]: 500 µg/mL; MIC [5, 26]: 2000 µg/mL"
"CCCCCCCCCCC(O)CO (centres unmarked) [1,2-Dodecandiol]",,,,,,,40000 µg/mL,40000 µg/mL,40000 µg/mL,8000 µg/mL,2000 µg/mL,4000 µg/mL,4000 µg/mL,4000 µg/mL,,,
PEG9-caprylate,2000 ppm,2000 ppm,10000 ppm,10000 ppm,8000 ppm,8000 ppm,,,,,,,,,20000 ppm,10000 ppm,"Minimal inhibitory concentration (MIC) ([5]; M. pachydermatis 1892, agar dilution, pH 5.5, 32° C., up to 14 days): 4000 ppm; Minimal inhibitory concentration (MIC) ([5]; M. pachydermatis CBS 1879, agar dilution, pH 5.5, 32° C., up to 14 days): 2000 ppm; Minimal inhibitory concentration (MIC) [2, 8]: 2000 ppm"
C=CCCCCCCCCC(=O)OCC(CO)OC(=O)CCCCCCCCC=C (centres unmarked) [3-Hydroxypropyl diundecylenoate],10000 ppm,10000 ppm,,,,,,,,,,,,,>20000 ppm,>20000 ppm,
